The data set can be described thus: recombinant UMI read abundance after kanamycin selection (control-corrected) (log10(CPM+1)); higher = more efficient recombination; extreme values may be limits of the assay; sequences stand for … in AGTGCAGAGAAAATCGGCCAGTTTTCTCTGCCTGCAGTCCGCATGCCGTGGGACCCCTTGGGTTCTAACCTGTTGCCTAGATTTATGCAGCGGACTGCCTTTCTCCCAAAGTGATAAACCGG…AGGTTGGTTTCACT; site = the 11-nt donor. The method in brief: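 Counts of recombinant UMIs were reported as log10(CPM+1). Before that, they were converted to CPM, averaged over replicates and scaled using control-derived factors. They came from PCR across the donor–target junction after Escherichia coli carrying the pair library and target plasmid was plated on IPTG (0.07 mM) plus kanamycin, or unselected, in two replicates each.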
In the case of “ATAAGGCCATGGACCGGTTTTCCCGGTAATCCGTATTTGAC (site ATAAGGTCTGT)”, the “recombinant UMI read abundance (log10)” value was 1.87.
Then “ATAAGGCCATGGACCGGTTTTCCCGGTAATCCGTATTTGAC (site ATAAGTCCTGT)”, with 0.
As for “ATAAGGCCATGGACCGGTTTTCCCGGTAATCCGTATTTGAC (site ATAATGCCTGT)”, the figure is 0.
For “ATAAGGCCATGGACCGGTTTTCCCGGTAATCCGTATTTGAC (site ATACGGCCTGT)”, the “recombinant UMI read abundance (log10)” value stood at 0.
Then “ATAAGGCCATGGACCGGTTTTCCCGGTAATCCGTATTTGAC (site ATAGGGCCTGT)”, with 0.
Then “ATAAGGCCATGGACCGGTTTTCCCGGTAATCCGTATTTGAC (site ATATGGCCTGT)”, with 0.00516; and “ATAAGGCCATGGACCGGTTTTCCCGGTAATCCGTATTTGAC (site ATCAGGCCTGT)”, with 0; and “ATAAGGCCATGGACCGGTTTTCCCGGTAATCCGTATTTGAC (site ATGAGGCCTGT)”, with 0.
Regarding “ATAAGGCCATGGACCGGTTTTCCCGGTAATCCGTATTTGAC (site ATTAGGCCTGT)”, the “recombinant UMI read abundance (log10)” value was 0.
As for “ATAAGGCCATGGACCGGTTTTCCCGGTAATCCGTATTTGAC (site CTAAGGCCTGT)”, the “recombinant UMI read abundance (log10)” value is 0.
Consider “ATAAGGCCATGGACCGGTTTTCCCGGTAATCCGTATTTGAC (site GTAAGGCCTGT)”, for which the “recombinant UMI read abundance (log10)” value was found to be 0.
Then “ATAAGGCCATGGACCGGTTTTCCCGGTAATCCGTATTTGAC (site TTAAGGCCTGT)”, with 0.
On to “ATAAGGCCATGGACCGGTTTTCCCGGTAATCCGTATTTGCC (site ATAAGGCCTGA)”, for which the “recombinant UMI read abundance (log10)” value stood at 0.
For the sequence “ATAAGGCCATGGACCGGTTTTCCCGGTAATCCGTATTTGCC (site ATAAGGCCTGC)”, the “recombinant UMI read abundance (log10)” value was 0.
As for “ATAAGGCCATGGACCGGTTTTCCCGGTAATCCGTATTTGCC (site ATAAGGCCTGG)”, the figure is 1.07.
With “ATAAGGCCATGGACCGGTTTTCCCGGTAATCCGTATTTGCC (site ATAAGGCCTGT)”, the “recombinant UMI read abundance (log10)” value came out at 0.
Then “ATAAGTCCATGGACCGGTTTTCCCGGTAATCCGTATTTGAC (site ATAAGACCTGT)”, with 0; and “ATAAGTCCATGGACCGGTTTTCCCGGTAATCCGTATTTGAC (site ATAAGCCCTGT)”, with 0.569; and “ATAAGTCCATGGACCGGTTTTCCCGGTAATCCGTATTTGAC (site ATAAGGCCTGT)”, with 0.787.
Then “ATAAGTCCATGGACCGGTTTTCCCGGTAATCCGTATTTGAC (site ATAAGTCCTGT)”, with 2.13; and “ATAATCGCATGGACCGGTTTTCCCGGTAATCCGTATTTGGG (site ATAATCGCTCC)”, with 0.324.
Consider “ATAGAGCCATGGACCGGTTTTCCCGGTAATCCGTATTTGAA (site ATAGAGCCTTT)”, for which the “recombinant UMI read abundance (log10)” value worked out at 0.525.
As for “ATAGCCTCATGGACCGGTTTTCCCGGTAATCCGTATTTGCG (site ATAGCCTCTCG)”, the figure is 2.52; as for “ATAGCGACATGGACCGGTTTTCCCGGTAATCCGTATTTGCG (site ATAGCGACTCG)”, 2.61; as for “ATAGCTGCATGGACCGGTTTTCCCGGTAATCCGTATTTGTG (site ATAGCTGCTCA)”, 1.35.
In the case of “ATAGCTGCATGGACCGGTTTTCCCGGTAATCCGTATTTGTG (site CTAGCTGCTCA)”, the “recombinant UMI read abundance (log10)” value was 0.647.
Take “ATAGCTGCATGGACCGGTTTTCCCGGTAATCCGTATTTGTG (site GTAGCTGCTCA)”: the “recombinant UMI read abundance (log10)” value was 0.00767.
As for “ATAGCTGCATGGACCGGTTTTCCCGGTAATCCGTATTTGTG (site TTAGCTGCTCA)”, the figure is 0.0149; as for “ATAGGACCATGGACCGGTTTTCCCGGTAATCCGTATTTGCT (site ATAGGACCTAG)”, 0.
As for “ATAGTAACATGGACCGGTTTTCCCGGTAATCCGTATTTGAG (site ATAGTAACTCT)”, the figure is 2.18.
Regarding “ATAGTACCATGGACCGGTTTTCCCGGTAATCCGTATTTGAC (site ATAGTACCTGT)”, the “recombinant UMI read abundance (log10)” value turned out to be 0.
For the sequence “ATAGTAGCATGGACCGGTTTTCCCGGTAATCCGTATTTGAC (site ATAGTAGCTGT)”, the “recombinant UMI read abundance (log10)” value was determined as 3.06.
As for “ATAGTAGCATGGACCGGTTTTCCCGGTAATCCGTATTTGAC (site CTAGTATCTGT)”, the figure is 0.
Then “ATAGTATCATGGACCGGTTTTCCCGGTAATCCGTATTTGAA (site ATAGTATCTTT)”, with 3.09; and “ATAGTATCATGGACCGGTTTTCCCGGTAATCCGTATTTGAA (site CTAGTATCTGT)”, with 0.977; and “ATATAGGCATGGACCGGTTTTCCCGGTAATCCGTATTTGGC (site ATATAGGCTGC)”, with 2.39.
As for “ATATAGGCATGGACCGGTTTTCCCGGTAATCCGTATTTGGC (site ATCTAGGCTGC)”, the figure is 1.31.
Take “ATATAGGCATGGACCGGTTTTCCCGGTAATCCGTATTTGGC (site ATGTAGGCTGC)”: the “recombinant UMI read abundance (log10)” value is 1.08.
Then “ATATAGGCATGGACCGGTTTTCCCGGTAATCCGTATTTGGC (site ATTTAGGCTGC)”, with 0.00901; and “ATATATCCATGGACCGGTTTTCCCGGTAATCCGTATTTGGT (site ATATATCCTAC)”, with 0.648.
For “ATATGCACATGGACCGGTTTTCCCGGTAATCCGTATTTGTA (site ATATGCACTTA)”, the “recombinant UMI read abundance (log10)” value was found to be 2.49.
As for “ATATGCACATGGACCGGTTTTCCCGGTAATCCGTATTTGTA (site CTATGCACTTA)”, the figure is 0.913; as for “ATATGCACATGGACCGGTTTTCCCGGTAATCCGTATTTGTA (site GTATGCACTTA)”, 0.909.
Then “ATATGCACATGGACCGGTTTTCCCGGTAATCCGTATTTGTA (site TTATGCACTTA)”, with 1.66; and “ATATGGACATGGACCGGTTTTCCCGGTAATCCGTATTTGAC (site ATATGGACTGT)”, with 2.7; and “ATCAACTCATGGACCGGTTTTCCCGGTAATCCGTATTTGTG (site ATCAACTCTCA)”, with 2.13.
As for “ATCCACGCATGGACCGGTTTTCCCGGTAATCCGTATTTGAG (site ATCCAAGCTCT)”, the figure is 0.00979; as for “ATCCACGCATGGACCGGTTTTCCCGGTAATCCGTATTTGAG (site ATCCACGCTCT)”, 0.817; as for “ATCCACGCATGGACCGGTTTTCCCGGTAATCCGTATTTGAG (site ATCCAGGCTCT)”, 0.0164.
On to “ATCCACGCATGGACCGGTTTTCCCGGTAATCCGTATTTGAG (site ATCCATGCTCT)”, for which the “recombinant UMI read abundance (log10)” value turned out to be 0.00887.
As for “ATCCGAGCATGGACCGGTTTTCCCGGTAATCCGTATTTGAG (site ATCCAAGCTCT)”, the figure is 0.696.
Consider “ATCCGAGCATGGACCGGTTTTCCCGGTAATCCGTATTTGAG (site ATCCCAGCTCT)”, for which the “recombinant UMI read abundance (log10)” value came to 0.172.

The record behind these values is the supplement of paper PMC11208160.
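Further: IS621 bridge recombinase in Escherichia coli cells against a fixed T5 target plasmid.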
